Positions of bridges follow the written chain, without caps; N, C: chain ends. Residues, ends and D or L forms follow the SMILES beside them. *: point of attachment. X1 = N[C@@H](CSC1CC(=O)N(CC2CCC(C(=O)NCCCCC(C(=O)O)N(CCN(CC(=O)O)CC(=O)O)CCN(CC(=O)O)CC(=O)O)CC2)C1=O)C(=O)*
Columns and labels:
in vitro = in vitro ADME; conditions: human, whole blood
Description: ^111[…], or ^111In-co(NGR)4 was added to […] human blood in heparin (BD Biosciences, […], The Netherlands). Blood stability was tested at 0, 10, 30, and 50 min. For each time point imaging agents were separated from blood cells and proteins by adding 0.5 mL MeCN (VWR International BV, Breda, The Netherlands) to 0.5 mL blood sample followed by centrifugation (2,000 ×g, 3 min). Supernatant samples were analyzed by HPLC using the above-mentioned method.

[1] = Octanol/water partition coefficient (logP); format: physicochemical; conditions: 111In-labeled tracer, separate experiment 2 of 3, N = 3, method as ref 22
Description: The logP value of each compound was determined in three separate experiments as described previously.

[2] = Micro-SPECT myocardial perfusion, SUV of 99mTc-sestamibi in heart segments; format: in vivo, Swiss mice; conditions: i.v., last of 4 15-min SPECT frames, mean ± SEM
Description: In 10–12-week-old male Swiss mice, we induced MI by ligation of the left anterior descending coronary artery (LAD) as described before to test coNGR (n = 5) or co(NGR)4 (n = 8). […] SPECT imaging was performed 7 days after MI or sham surgery. All animals were held under the guidelines of the animal care facility (Maastricht University). All animal experiments were approved by the Committee for Animal Welfare of Maastricht University.
Mice were anesthetized with isoflurane (induction 2.5%; maintenance 1.5%), a catheter was placed in a tail vein, and animals were positioned in the SPECT camera (MILabs, Utrecht, The Netherlands). Prior to image acquisition, a bolus injection of ^99mTc-sestamibi and ^111In-coNGR or ^111In-co(NGR)4 was given intravenously (i.v.) in a maximum volume of 200 µL. Table S1 in Supplementary Material available online at https://doi.org/10.1155/2017/8638549 provides an overview of the average injected dose. Immediately after injection, 4 consecutive time frames of 15 min each were acquired. For image quantification we used the last of these frames.
Acquired list mode data was reconstructed using MILabs reconstruction software (version 2.51) employing the POS-EM algorithm (6 iterations and 16 subsets, reconstructed at a voxel size of 0.4 mm). ^99mTc and ^111In images were reconstructed by selecting photo peak and background energy levels as described before.
To allow quantification of imaging agent uptake, in vivo isotope-specific conversion factors (CF) were determined for the 0.6 mm collimator in a representative phantom with a known activity. Using the previously described method the following conversion factors (CF), CF99mTc 612 MBq/mL and CF111In 643 MBq/mL, were found.
PMOD 3.7 cardiac tool PCARD (PMOD technologies, Zürich, Switzerland) was used to segment the heart in the 17-segment model. Uptake per segment was subsequently expressed as a mean standardized uptake value (SUVmean), also using the previously described method. For body weight, we assumed that 1 g equalled 1 mL.

[3] = MI mice (n = 5), coNGR group, 7 days after LAD ligation
[4] = MI mice (n = 8), co(NGR)4 group, 7 days after LAD ligation
[5] = Sham-operated mice (n = 6), co(NGR)4 group, 7 days after surgery

CC(=O)N[C@H]1CSSC[C@@H](C(=O)NCC(=O)NCC(=O)N[C@@H](CCCCNC(=O)[C@@H](N)CSC2CC(=O)N(CC3CCC(C(=O)NCCCCC(C(=O)O)N(CCN(CC(=O)O)CC(=O)O)CCN(CC(=O)O)CC(=O)O)CC3)C2=O)C(N)=O)NC(=O)[C@H](CCCNC(=N)N)NC(=O)CNC(=O)[C@H](CC(N)=O)NC1=O (stereo partly drawn) [cNGR, cyclic(NAc-Cys-Asn-Gly-Arg-Cys-Gly-Gly-Lys)] (Ac-CNGRCGGK(X1)-NH2; disulfide 1-5)
remaining at 50 min (in vitro): 7.55%
logP2 [1]: −4.17 ± 0.01

[C-]#[N+]CC(C)(C)OC.[C-]#[N+]CC(C)(C)OC.[C-]#[N+]CC(C)(C)OC.[C-]#[N+]CC(C)(C)OC.[C-]#[N+]CC(C)(C)OC.[C-]#[N+]CC(C)(C)OC.[Tc] [^99mTc-sestamibi]
SUV of 99mTc-sestamibi, segment 1. Basal anterior [2, 3]: 2.46 ± 0.45
SUV of 99mTc-sestamibi, segment 2. Basal anteroseptal [2, 3]: 2.28 ± 0.39
SUV of 99mTc-sestamibi, segment 3. Basal inferoseptal [2, 3]: 2.33 ± 0.38
SUV of 99mTc-sestamibi, segment 4. Basal inferior [2, 3]: 2.60 ± 0.56
SUV of 99mTc-sestamibi, segment 5. Basal inferolateral [2, 3]: 2.23 ± 0.63
SUV of 99mTc-sestamibi, segment 6. Basal anterolateral [2, 3]: 2.14 ± 0.52
SUV of 99mTc-sestamibi, segment 7. Mid anterior [2, 3]: 1.41 ± 0.28
SUV of 99mTc-sestamibi, segment 8. Mid anteroseptal [2, 3]: 2.46 ± 0.39
SUV of 99mTc-sestamibi, segment 9. Mid inferoseptal [2, 3]: 2.27 ± 0.53
SUV of 99mTc-sestamibi, segment 10. Mid inferior [2, 3]: 1.64 ± 0.67
SUV of 99mTc-sestamibi, segment 11. Mid inferolateral [2, 3]: 0.75 ± 0.24
SUV of 99mTc-sestamibi, segment 12. Mid anterolateral [2, 3]: 0.42 ± 0.09
SUV of 99mTc-sestamibi, segment 13. Apical anterior [2, 3]: 0.71 ± 0.30
SUV of 99mTc-sestamibi, segment 14. Apical septal [2, 3]: 1.67 ± 0.39
SUV of 99mTc-sestamibi, segment 15. Apical inferior [2, 3]: 1.30 ± 0.31
SUV of 99mTc-sestamibi, segment 16. Apical lateral [2, 3]: 0.59 ± 0.26
SUV of 99mTc-sestamibi, segment 17. Apex [2, 3]: 0.98 ± 0.35
SUV of 99mTc-sestamibi, segment 1. Basal anterior [2, 4]: 2.60 ± 0.70
SUV of 99mTc-sestamibi, segment 2. Basal anteroseptal [2, 4]: 3.68 ± 0.42
SUV of 99mTc-sestamibi, segment 3. Basal inferoseptal [2, 4]: 3.97 ± 0.49
SUV of 99mTc-sestamibi, segment 4. Basal inferior [2, 4]: 3.06 ± 0.54
SUV of 99mTc-sestamibi, segment 5. Basal inferolateral [2, 4]: 1.66 ± 0.47
SUV of 99mTc-sestamibi, segment 6. Basal anterolateral [2, 4]: 1.60 ± 0.55
SUV of 99mTc-sestamibi, segment 7. Mid anterior [2, 4]: 1.35 ± 0.31
SUV of 99mTc-sestamibi, segment 8. Mid anteroseptal [2, 4]: 3.56 ± 0.47
SUV of 99mTc-sestamibi, segment 9. Mid inferoseptal [2, 4]: 3.57 ± 0.68
SUV of 99mTc-sestamibi, segment 10. Mid inferior [2, 4]: 2.21 ± 0.52
SUV of 99mTc-sestamibi, segment 11. Mid inferolateral [2, 4]: 0.68 ± 0.07
SUV of 99mTc-sestamibi, segment 12. Mid anterolateral [2, 4]: 0.62 ± 0.07
SUV of 99mTc-sestamibi, segment 13. Apical anterior [2, 4]: 1.04 ± 0.25
SUV of 99mTc-sestamibi, segment 14. Apical septal [2, 4]: 2.68 ± 0.30
SUV of 99mTc-sestamibi, segment 15. Apical inferior [2, 4]: 2.06 ± 0.24
SUV of 99mTc-sestamibi, segment 16. Apical lateral [2, 4]: 0.67 ± 0.11
SUV of 99mTc-sestamibi, segment 17. Apex [2, 4]: 1.25 ± 0.32
SUV of 99mTc-sestamibi, segment 1. Basal anterior [2, 5]: 2.91 ± .026
SUV of 99mTc-sestamibi, segment 2. Basal anteroseptal [2, 5]: 2.72 ± 0.32
SUV of 99mTc-sestamibi, segment 3. Basal inferoseptal [2, 5]: 2.89 ± 0.33
SUV of 99mTc-sestamibi, segment 4. Basal inferior [2, 5]: 3.07 ± 0.33
SUV of 99mTc-sestamibi, segment 5. Basal inferolateral [2, 5]: 3.03 ± 0.30
SUV of 99mTc-sestamibi, segment 6. Basal anterolateral [2, 5]: 2.89 ± 0.20
SUV of 99mTc-sestamibi, segment 7. Mid anterior [2, 5]: 3.00 ± 0.22
SUV of 99mTc-sestamibi, segment 8. Mid anteroseptal [2, 5]: 3.10 ± 0.28
SUV of 99mTc-sestamibi, segment 9. Mid inferoseptal [2, 5]: 3.16 ± 0.26
SUV of 99mTc-sestamibi, segment 10. Mid inferior [2, 5]: 3.03 ± 0.29
SUV of 99mTc-sestamibi, segment 11. Mid inferolateral [2, 5]: 3.06 ± 0.34
SUV of 99mTc-sestamibi, segment 12. Mid anterolateral [2, 5]: 2.77 ± 0.22
SUV of 99mTc-sestamibi, segment 13. Apical anterior [2, 5]: 2.93 ± 0.22
SUV of 99mTc-sestamibi, segment 14. Apical septal [2, 5]: 3.23 ± 0.24
SUV of 99mTc-sestamibi, segment 15. Apical inferior [2, 5]: 2.88 ± 0.32
SUV of 99mTc-sestamibi, segment 16. Apical lateral [2, 5]: 2.44 ± 0.20
SUV of 99mTc-sestamibi, segment 17. Apex [2, 5]: 2.71 ± 0.25

— PMC5674494, “Use of Cyclic Backbone NGR-Based SPECT to Increase Efficacy of Postmyocardial Infarction Angiogenesis Imaging” (Contrast Media & Molecular Imaging, 2017)
